Key:
Format in all cases: cell-based, human
Neuritin mRNA = assay: qPCR of target mRNA after siRNA transfection: Neuritin; details: relative to controls; RNA harvested day 3 post-transfection
Protocol: (§1) Quantitative PCR. Real-time PCR was performed on an ABI 7700 sequence detection system (Applied Biosystems). To normalize gene expression between mock and infected samples, 18S RNA, beta-Actin and GAPDH were assessed. […] Total RNA was treated with Dnase I (Dnase Free:Ambion) before synthesis of cDNA by random hexamers and Superscript II (Invitrogen). […] Relative expression values between mock and infected samples were calculated by the comparative CT Method as previously described (Moses et al, 2002). […]
(§2) siRNA treatment and Focus Inhibition Assay. siRNA oligonucleotides were designed using the oligoengine design tool (Oligoengine, Seattle, Wash.). […] Cells were monitored for up to 14 days for evidence of foci-formation, as described for the PMO-AS assays. […]
Specifically, FIGS. 6A-D show, according to particular aspects of the present invention, small interfering RNA (siRNA) inhibition of RDC1, Neuritin, INSR and IGFBP2. […] Cells were treated with siRNA and monitored for up to 14 days. To calculate mRNA degradation, mRNA was isolated and qPCR was performed. mRNA levels were calculated relative to a FITC-tagged control siRNA (100%). […]

KSHV-infected DMVEC = assay: siRNA treatment and focus inhibition assay; details: observed up to 14 days post-transfection
Protocol: siRNA treatment and Focus Inhibition Assay. siRNA oligonucleotides were designed using the oligoengine design tool (Oligoengine, Seattle, Wash.). RNA olionucleotides were purchased from Oligoengine or Dharmacon Inc. (Lafayette, Colo.). […] The twenty-one nucleotide RNA oligos were resuspended according to manufacturer's instructions to obtain either 20 microM or 50 microM solutions and delivered to DMVEC by transfection. For transfection, cells were seeded into 35 mm plates for overnight incubation, and transfections were performed at approximately 80% confluence according to published methods. Briefly, from a 20 microM siRNA stock solution, 12 microL of siRNA was added (240 pmol) to 200 microL OPTI-MEM medium (Gibco). After a 10 minute incubation, 12 microL Oligofectamine (Invitrogen) diluted in 48 microL OPTI-MEM was mixed with the diluted siRNA and incubated for an addition 20 minutes. The complex was added dropwise to a […] containing 1 ml of complete endothelial growth medium. Cells were monitored for up to 14 days for evidence of foci-formation, as described for the PMO-AS assays. Control Cy3-Luciferase GL2 Duplex siRNA (Dharmacon) was used to monitor transient tranfection and the duration of siRNA expression in endothelial cells. Cy3 siRNA was visible for over 3 weeks post-transfection. […]

RDC1 mRNA = assay: qPCR of target mRNA after siRNA transfection: RDC1; details: relative to FITC-tagged control siRNA or transfection reagent alone; KSHV-DMVEC
Protocol: as §1, §2
Specifically, FIGS. 6A-D show, according to particular aspects of the present invention, small interfering RNA (siRNA) inhibition of RDC1, Neuritin, INSR and IGFBP2. […] Cells were treated with siRNA and monitored for up to 14 days. To calculate mRNA degradation, mRNA was isolated and qPCR was performed. mRNA levels were calculated relative to a FITC-tagged control siRNA (100%).

Neuritin siRNA: Neuritin siRNA, AAAGATATCTGATTAATTCCA (SEQ ID NO:42) (guide AAAGATATCTGATTAATTCCA; listed as DNA, chemistry not given here)
reduction in Neuritin mRNA levels (Neuritin mRNA): 63%
KSHV-induced focus formation / contact inhibition after siRNA (KSHV-infected DMVEC): maintained contact-inhibited growth

RDC1 siRNA #1: RDC1 siRNA giving the larger mRNA decrease; presumably RDC1-234, AACATGCCCAACAAAAGCGTC (guide AACATGCCCAACAAAAGCGTC; listed as DNA, chemistry not given here)
reduction of RDC1 mRNA (RDC1 mRNA): 56%
KSHV-induced focus formation / contact inhibition after siRNA (KSHV-infected DMVEC): more stringent maintenance of contact inhibition

Reference: patent publication US20070072209A1, “Methods of treatment and diagnosis of Kaposi's sarcoma (KS) and KS related diseases” (priority 2005, published 2007)
